{"source": "patent US20230134922A1", "about": "“TOPICAL DELIVERY OF BUFFERING AGENTS FOR PREVENTION AND TREATMENT OF VIRAL INFECTIONS” (Dyve Biosciences, Inc., priority 2020, published 2023)", "key": {"[1]": {"system": "MCF-7 cells", "test": "Doxorubicin uptake and cytotoxicity at medium pH 6.8 or 7.4", "format": "cell-based", "conditions": "raising the pHe from 6.8 to 7.4", "description": "Twenty-four hours later, regular growth medium was replaced, and cells allowed to grow a subsequent 72 h, after which time they were fixed and stained with crystal violet for determination of cell number."}, "[2]": {"system": "MCF-7 tumors", "test": "MCF-7 tumor growth in SCID mice, doxorubicin with oral or topical bicarbonate", "format": "in vivo", "procedure": "The start of the bicarbonate treatment was designated as day 1.\nTumor volumes and animal weights were monitored every 2 days. […] Other characteristics of tumors that increase its potential for carcinogenesis other than growth rates are measured by other parameters as well, including inhibition metastasis."}}, "data": [{"substance": "doxorubicin", "values": [{"measurement": "enhancement of cytotoxicity", "setting": "[1]", "result": 2.25, "unit": "fold"}, {"measurement": "increase in intracellular doxorubicin concentrations", "setting": "[1]", "result": 2.56, "unit": "fold"}, {"measurement": "decrease of tumor growth rate", "setting": "[2]; Group B, 1.6 mg/kg i.p. days 3, 7, 11, doxorubicin alone", "result": "~30", "unit": "%"}, {"measurement": "reduction in tumor growth rate", "setting": "[2]; Group D, doxorubicin i.p. with 200 mM sodium bicarbonate drinking water", "result": 55, "unit": "%"}, {"measurement": "reduction in tumor growth rate", "setting": "[2]; Group F, doxorubicin i.p. with topical bicarbonate formulation 150 μL/day", "result": "significantly lowered tumor growth rate"}, {"measurement": "reduction in tumor growth rate", "setting": "[2]; Group F, doxorubicin i.p. with topical bicarbonate formulation 150 μL/day, listed as Doxorubicin", "result": 55, "unit": "%"}]}]}
